Experimental data: patent publication US20250041309A1 (ZHENAO JINYINHUA PHARMACEUTICAL, priority 2021, published 2025)
Several values for one entry are separate records, joined by “and”; a condition that tells them apart may be missing. Equal values may be shown once. Where a name gives a salt, the structure may show the parent alone.

Experiments:
Assay type in all cases: in vivo, SD rats
[1] = tested on: ischemic stroke model rats; experiment: Cerebral infarction range (TTC), ischemic stroke model rats, intravenous administration (Example 22); details: 10 mg/kg iv qd 7 d
Text: (§1) On the day of the experiment, the rat was anesthetized with isoflurane gas and placed in a supine position for fixation. The skin was cut along the midline of the neck to expose the right common carotid artery. The nerves and fascia around the blood vessels from the common carotid artery bifurcation to the base of the skull were carefully removed, and the external and internal carotid arteries were separated sequentially. The MCAO suture was inserted from the free end of the external carotid artery, and the nylon suture was introduced into the internal carotid artery from the distal end of the external carotid artery. It was inserted into the Willis ring of the middle cerebral artery to effectively block the middle cerebral artery. The length of the inserted suture was 18-20 mm away from the bifurcation of the common carotid artery. Then the free end of the external carotid artery was ligated along with the endovascular suture to prevent bleeding. […] Animals were kept in cages. The animals successfully modeled were randomly divided into three groups based on their scores, namely the model control group, compound 1 AD group ([…] citrate group) 10 mg/kg, and compound 2 XD group (Sildenafil citrate group) 10 mg/kg, with 10 animals in each group. […] The endpoint of the experiment was 14 days after administration, and the dosage is detailed in the table below. This experiment was administered intravenously with a dosage of 10 mg/kg and a volume of 5 mL/kg, once per day for consecutive 7 days. At the end of the experiment, the brain tissue of the rats was collected by bloodletting and frozen in a -20° C. freezer, then are sliced with a thickness of 2 mm per slice. The brain tissue slices were placed in a 2% red tetrazolium (TTC) solution and incubated at 37° C. for 5 minutes. The infarcted tissue appeared white, while the non-infarcted tissue appeared red.

[2] = tested on: MCAO rats; experiment: Morris water maze experiment in MCAO rats, oral administration (Example 21); details: gavage 4 mg/kg twice per day, 14 days water maze test
Protocol: Morris water maze experiment: testing the learning and memory abilities of rats.
The Morris water maze experiment is conducted continuously for 6 days each time, with training conducted for the first 5 days and testing conducted on 6th day.
For each of the tests, the rats were trained four times a day at a fixed time period for the first five days (once in the first, second, third, and fourth quadrants respectively). At the beginning of the training, a platform was placed in the first quadrant, and from any starting points of the four quadrants on the pool wall, the rats were placed into the pool, facing the pool wall. The camera system records the time when the rats found the platform and their swimming path. Four training sessions involved placing rats into water from four different starting points. If the rat finds the platform or cannot find it within 60 seconds, the experimenter will guide it to the platform, rest on the platform for 10 seconds, and then proceed to the next experiment.
The rats were removed from the platform, dried with a soft cloth, and put back into the cage. Afterwards, the next experiment on the rat was performed until the numbered animals had finished swimming, and then the next set of experiments was conducted.
This experiment was conducted on the 14th day after administration. […]

[3] = Weight monitoring of MCAO rats, oral administration (Example 21); details: gavage 4 mg/kg twice per day; for Weight D 0: D 0, group mean; for Weight D 4: D 4, group mean; for Weight D 7: D 7, group mean; for Weight D 11: D 11, group mean; for Weight D 14: D 14, group mean; for Weight D 18: D 18, group mean; for Weight D 21: D 21, group mean; for Weight D 25: D 25, group mean; for Weight D 28: D 28, group mean
Protocol: Administration route: gavage administration; Dosage: 4 mg/kg body weight, twice per day; Administration time: gavage administration twice in the morning and evening per day (administered immediately after modeling). A rat model of middle cerebral artery ischemia/reperfusion (MCAO/R) was created using the suture method. […] After surgical exposure of the carotid artery, suture was performed without ischemia-reperfusion injury; • (3) Treatment group 1: MCAO model+[…] citrate drug treatment group; • (4) Treatment group 2: MCAO model+Sildenafil citrate drug treatment group; […]

[4] = tested on: ischemic stroke model rats; experiment: Neurological function (behavioral) score, ischemic stroke model rats, intravenous administration (Example 22); parameters: scale not given here; details: 10 mg/kg iv qd 7 d, x ± s, n = 10
Text: as §1, with “cages. After 2 hours of embolization, then reperfusion, according to the scoring criteria in the attached table, the degree of neurological damage in the animals was scored using a blind method. Those with significant neurological deficits (>8 points) were considered successful in modeling. • ? Grouping and administration” for “cages.”, “Score before treatment, 3 days after treatment, 7 days after treatment,” for “At the end of the experiment, the brain tissue of the rats was collected by bloodletting”, “14 days after treatment.” for “frozen in a -20° C. freezer, then are sliced with a thickness of 2 mm per slice. The brain tissue slices were placed in a 2% red tetrazolium (TTC) solution and incubated at 37° C. for 5 minutes. The infarcted tissue appeared white, while the non-infarcted tissue appeared red.”

[5] = tested on: MCAO rats; experiment: Neurological deficits (mNSS) score in MCAO rats, oral administration (Example 21); parameters: scale not given here; details: gavage 4 mg/kg twice per day, one value per rat (30 per group)
Protocol: (§2) Administration route: gavage administration;
Dosage: 4 mg/kg body weight, twice per day;
Administration time: gavage administration twice in the morning and evening per day (administered immediately after modeling).
A rat model of middle cerebral artery ischemia/reperfusion (MCAO/R) was created using the suture method.
Scores were evaluated using the mNSS rat neurological deficit scoring method. The neurological deficits of the experimental rats were evaluated on 14 days after modeling. • ?

[6] = tested on: MCAO rats; experiment: Neurological function (behavioral) score in MCAO rats, oral administration (Example 23); details: gavage 8 mg/kg twice a day; after 3, 7 and 14 days administration
Protocol: as §2
(§3) Dosage: 8 mg/kg body weight, twice a day;
(§4) Administration time: gavage administration twice a day in the morning and evening (administered immediately after modeling).
(§5) A rat model of middle cerebral artery ischemia/reperfusion (MCAO/R) was created using suture-occluded method.
After 2 hours of embolization, then reperfusion, according to the scoring criteria in the attached table, the degree of neurological damage in the animals was scored using a blind method. Those with significant neurological deficits (>8 points) were considered successful in modeling.
(§6) The successfully modeled rats were randomly divided into 4 groups based on their scores, with an average of 20 rats in each group.
Neurological function score: evaluation was conducted before treatment, 3 days, 7 days, and 14 days after treatment.

[7] = tested on: MCAO rats; experiment: Cerebral infarction range (TTC) in MCAO rats, oral administration (Example 23); details: gavage 8 mg/kg*2, after 14 days
Protocol: as §2, §3, §4, §5, §6
At the end of the experiment, the brain tissue of the rats was collected by bloodletting and frozen in a −20° C. freezer, and then is sliced into a thickness of 2 mm per slice. The brain tissue slices were placed in a 2% red tetrazolium (TTC) solution and incubated at 37° C. for 5 minutes. The infarcted tissue appeared white, while the non-infarcted tissue appeared red. Image J software was used to measure the area of cerebral infarction and the percentage of infarct area to the total brain area was calculated.

Row | SMILES | Total cerebral infarction % ([1]; 14 days after administration, x ± s, n = 10) [%] | Improvement rate % of cerebral infarction range ([1]; 14 days, versus model control group) [%] | average latency period, Morris water maze [2] [s] | Weight D 0 [3] [g] | Weight D 4 [3] [g] | Weight D 7 [3] [g] | Weight D 11 [3] [g] | Weight D 14 [3] [g] | Weight D 18 [3] [g] | Weight D 21 [3] [g] | Weight D 25 [3] [g] | Weight D 28 [3] [g] | behavioral score, 3 days after medication ([4]; 3 days after medication) | behavioral score, 7 days after medication ([4]; 7 days after medication) | behavioral score, 14 days after medication ([4]; 14 days after medication) | behavioral score, Before medication ([4]; before medication) | Score for neurological deficits (mNSS) after 14 days of administration, individual rats [5] | behavioral scores compared with the model control group [6] | Improvement rate % of cerebral infarction range ([7]; versus model control group) [%] | Total cerebral infarction % ([7]; x ± s, n = 20) [%]
1 | CCCc1nn(C)c2c(=O)[nH]c(-c3cc(S(=O)(=O)N4CCN(C)CC4)ccc3OCC)nc12 [Sildenafil citrate] | 21.5 ± 8.6 | 14.0 | 16.88 | 297.7 | 251.4 | 249.0 | 266.9 | 282.4 | 307.6 | 318.3 | 339.6 | 345.9 | 7.4 ± 1.4 | 6.1 ± 1.7 | 4.9 ± 1.7 | 9.6 ± 0.5 | 8 (10×) and 9 (8×) and 7 (7×) and 10 (3×) and 5 and 6 |  |  | 
2 | CCCc1nn(C)c2c(=O)[nH]c(-c3cc(S(=O)(=O)N4C[C@@H](C)N[C@@H](C)C4)ccc3OCC)nc12 [Aildenafil, 1-[3-(6,7-dihydro-1-methyl-7-oxy-3-n-propyl-1H-pyrazolo[4,3-d]pyrimidin-5-yl)-4-ethoxybenzenesulfonyl]-3,5-dimethylpiperazine] |  |  | 8.93 | 303.9 | 251.4 | 253.8 | 274.1 | 287.2 | 312.0 | 321.3 | 341.9 | 345.0 |  |  |  |  | 7 (7×) and 5 (3×) and 6 (7×) and 8 (6×) and 9 (4×) and 10 (2×) | significant improvement | 31.5 | 17.0 ± 6.7
